From the supplement of paper PMC10307832

Columns and labels:
Experiment in all cases: relative viability (nuclei count vs DMSO), 5 days (fraction); higher = more cells survive
[1] = compound: N#CC[C@H](C1CCCC1)n1cc(-c2ncnc3[nH]ccc23)cn1 [Ruxolitinib] + N=C(N)NC(=N)NCCc1ccccc1 [Phenformin] (partner 250 µM)
Method in brief: (§1)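 The day after seeding in 1536-well plates, lung cancer cell lines were treated by pin tool with a single drug, or with a fixed anchor-drug dose together with five library-drug doses (not always all listed) in √10 steps. After 5 days, a combined fix-and-stain solution (final 0.05% Triton X-100, 1% formaldehyde, 1 ug/ml Hoechst) was added. Nuclei counted on 4× images gave relative viability as treated counts over vehicle counts, reported as the median of duplicate plates.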

[2] = compound: CS(=O)(=O)c1ccc(C(=O)Nc2ccc(Cl)c(-c3ccccn3)c2)c(Cl)c1 [Vismodegib] + Cc1nc(NC(=O)N2CCC[C@H]2C(N)=O)sc1-c1ccnc(C(C)(C)C(F)(F)F)c1 [Alpelisib] (partner 2 µM)
Method in brief: as §1

[3] = compound: CS(=O)(=O)c1ccc(-c2cnc(N)c(C(=O)Nc3ccccc3)n2)cc1 [VE-821] + CS(=O)(=O)N1CCN(Cc2cc3nc(-c4cccc5[nH]ncc45)nc(N4CCOCC4)c3s2)CC1 [Pictilisib] (partner 1 µM)
Method in brief: as §1

[4] = compound: CS(=O)(=O)c1ccc(-c2cnc(N)c(C(=O)Nc3ccccc3)n2)cc1 [VE-821] + CC(=O)Nc1cccc(-n2c(=O)n(C3CC3)c(=O)c3c(Nc4ccc(I)cc4F)n(C)c(=O)c(C)c32)c1 [Trametinib] (partner 0.02 µM)
Method in brief: as §1

Cell Line | relative viability ([1]; first compound 0.08 µM) | relative viability ([1]; first compound 0.253 µM) | relative viability ([1]; first compound 0.8 µM) | relative viability ([1]; first compound 2.53 µM) | relative viability ([1]; first compound 8 µM) | relative viability ([2]; first compound 0.08 µM) | relative viability ([2]; first compound 0.253 µM) | relative viability ([2]; first compound 0.8 µM) | relative viability ([2]; first compound 2.53 µM) | relative viability ([2]; first compound 8 µM) | relative viability ([3]; first compound 0.08 µM) | relative viability ([3]; first compound 0.253 µM) | relative viability ([3]; first compound 0.8 µM) | relative viability ([3]; first compound 2.53 µM) | relative viability ([3]; first compound 8 µM) | relative viability ([4]; first compound 0.08 µM) | relative viability ([4]; first compound 0.253 µM) | relative viability ([4]; first compound 0.8 µM) | relative viability ([4]; first compound 2.53 µM) | relative viability ([4]; first compound 8 µM)
201T | 0.44 | 0.455 | 0.473 | 0.429 | 0.503 | 1.03 | 0.996 | 0.994 | 1.07 | 0.984 | 0.723 | 0.626 | 0.65 | 0.698 | 0.559 | 0.743 | 0.721 | 0.725 | 0.734 | 0.693
A549 | 0.0714 | 0.144 | 0.198 | 0.127 | 0.15 | 0.658 | 0.673 | 0.73 | 0.734 | 0.69 | 0.616 | 0.481 | 0.531 | 0.468 | 0.229 |  |  |  |  | 
A-427 | 0.291 | 0.3 | 0.338 | 0.281 | 0.276 | 1.02 | 1.04 | 0.965 | 1.09 | 1.1 | 0.763 | 0.538 | 0.54 | 0.684 | 0.389 | 0.868 | 0.676 | 0.812 | 0.686 | 0.495
ABC-1 |  | 0.282 | 0.316 | 0.287 | 0.294 | 0.994 | 1.13 | 1.08 | 0.83 | 0.949 | 0.902 | 0.684 | 0.721 | 0.751 | 0.466 |  |  |  |  | 
BEN | 0.232 | 0.281 | 0.244 | 0.239 | 0.255 | 1.03 | 0.988 | 0.863 | 0.984 | 1.02 | 0.707 | 0.55 | 0.527 | 0.591 | 0.542 | 1.08 | 1.02 | 0.982 | 1.14 | 1.09
CAL-12T | 0.437 | 0.674 | 0.596 | 0.444 | 0.408 | 1.12 | 1.02 | 1.37 | 1.2 | 1.3 | 0.479 | 0.394 | 0.448 | 0.427 | 0.314 | 0.372 | 0.355 | 0.325 | 0.322 | 0.325
COR-L23 | 0.457 | 0.407 | 0.45 | 0.439 | 0.354 | 0.77 | 0.672 | 0.689 | 0.756 | 0.819 | 1.17 | 0.654 | 0.961 | 0.981 | 0.682 | 0.658 | 0.658 | 0.587 | 0.759 | 0.535
COR-L 105 | 0.409 | 0.495 | 0.425 | 0.392 | 0.374 | 0.832 | 0.882 | 0.847 | 0.839 | 0.868 | 0.46 | 0.392 | 0.402 | 0.405 | 0.38 | 0.463 | 0.412 | 0.483 | 0.4 | 0.449
Calu-6 |  |  |  |  |  | 0.97 | 0.976 | 0.901 | 1.09 | 0.979 | 1.1 | 0.973 | 0.918 | 0.778 | 0.523 |  |  |  |  | 
